Reference: patent US9655884B2, “Antiparasitic use of isoxazoline compounds” (Intervet Inc., priority 2013, dated 2017)

Test system: C. felis
Experiment: In vivo study in dogs to assess flea control efficacy in a simulated home environment
Details: 25 mg/kg oral; for Mean flea numbers (arithmetic), Treated group / Mean flea numbers (geometric), Treated group: 25 mg/kg
Experimental: Twenty healthy male and female mixed-breed dogs ≧12 weeks old were housed in individual pens. Ten dogs per group were randomly assigned to receive either a fluralaner chewable tablet (Bravecto™) or no treatment. Each pen contained the bottom half of a dog carrier lined with carpet as bedding. Before treatment, each dog was infested twice (28 and 21 days pretreatment) with 100 adult, unfed C. felis to establish a flea population prior to treatment on each dog. Flea media was added to the carpet 4 weeks before the treatment date and weekly thereafter for the remainder of the study to encourage development of an active, developing population of juvenile flea stages in each pen. On the treatment day, dogs in the treated group received fluralaner at a dose close to 25 mg/kg body weight by oral administration. The chewable tablet(s) were administered by placement in the back of the oral cavity over the tongue to initiate swallowing. Dogs in the negative control group remained untreated. Flea counts were performed on all dogs 1 day before treatment, 1 day after treatment and then every 7 days until completion of the study 84 days later. All live fleas recovered were held and re-infested on the dog after the comb count was completed. Each dog was also infested with 50 newly emerged unfed adult fleas on days 22, 50 and 78 to simulate natural infestation post-treatment. The individual dog was the experimental unit and data from each flea count time point were analyzed separately. Flea count data were transformed [Y=loge(x+1)] and analyzed by a mixed linear model including treatment as the fixed effect and block as the random effect. Kenward-Rogers adjustment was used to determine the denominator degree of freedom. A two-tailed test was used within the mixed linear model for the comparison between treatment groups and statistical significance was declared when P≦0.05. SAS version 9.3 was the primary software used for analysis. Efficacy was calculated using arithmetic and geometric means with Abbott's formula: Efficacy (%)=100×(MC−MT)/MC, where MC was the arithmetic or geometric mean number of total adult live fleas on untreated dogs and MT the arithmetic or geometric mean number of total adult live fleas on treated dogs.

[1] = day 1 post treatment, listed as fluranaler
[2] = day 7 post treatment, listed as fluranaler
[3] = day 14 post treatment, listed as fluranaler
[4] = day 21 post treatment, listed as fluranaler
[5] = day 28 post treatment, listed as fluranaler
[6] = day 35 post treatment, listed as fluranaler
[7] = day 42 post treatment, listed as fluranaler
[8] = day 49 post treatment, listed as fluranaler
[9] = day 56 post treatment, listed as fluranaler
[10] = day 63 post treatment, listed as fluranaler
[11] = day 70 post treatment, listed as fluranaler
[12] = day 77 post treatment, listed as fluranaler
[13] = day 84 post treatment, listed as fluranaler

Cc1cc(C2=NOC(c3cc(Cl)cc(Cl)c3)(C(F)(F)F)C2)ccc1C(=O)NCC(=O)NCC(F)(F)F (stereo not shown) [fluralaner, 4-[5-(3,5-Dichlorophenyl)-5-trifluoromethyl-4,5-dihydroisoxazol-3-yl]-2-methyl-N-[(2,2,2-trifluoro-ethylcarbamoyl)-methyl]-benzamide]
Flea-control efficacy (all post-treatment time points (12-week post-treatment period)): ~100%
Efficacy (from arithmetic mean flea counts) (day 1 post treatment): 100/100%
Efficacy (from geometric mean flea counts) (day 1 post treatment): 100/100%
Mean flea numbers (arithmetic), Treated group (day 1 post treatment): 0
Mean flea numbers (geometric), Treated group (day 1 post treatment): 0
Mean flea numbers (arithmetic), Treated group [1]: 0/0
Mean flea numbers (geometric), Treated group [1]: 0/0
Efficacy (from arithmetic mean flea counts) (day 7 post treatment): 100/100%
Efficacy (from geometric mean flea counts) (day 7 post treatment): 100/100%
Mean flea numbers (arithmetic), Treated group (day 7 post treatment): 0
Mean flea numbers (geometric), Treated group (day 7 post treatment): 0
Mean flea numbers (arithmetic), Treated group [2]: 0/0
Mean flea numbers (geometric), Treated group [2]: 0/0
Efficacy (from arithmetic mean flea counts) (day 14 post treatment): 100/100%
Efficacy (from geometric mean flea counts) (day 14 post treatment): 100/100%
Mean flea numbers (arithmetic), Treated group (day 14 post treatment): 0
Mean flea numbers (geometric), Treated group (day 14 post treatment): 0
Mean flea numbers (arithmetic), Treated group [3]: 0/0
Mean flea numbers (geometric), Treated group [3]: 0/0
Efficacy (from arithmetic mean flea counts) (day 21 post treatment): 100/100%
Efficacy (from geometric mean flea counts) (day 21 post treatment): 100/100%
Mean flea numbers (arithmetic), Treated group (day 21 post treatment): 0
Mean flea numbers (geometric), Treated group (day 21 post treatment): 0
Mean flea numbers (arithmetic), Treated group [4]: 0/0
Mean flea numbers (geometric), Treated group [4]: 0/0
Efficacy (from arithmetic mean flea counts) (day 28 post treatment): 100/100%
Efficacy (from geometric mean flea counts) (day 28 post treatment): 100/100%
Mean flea numbers (arithmetic), Treated group (day 28 post treatment): 0
Mean flea numbers (geometric), Treated group (day 28 post treatment): 0
Mean flea numbers (arithmetic), Treated group [5]: 0/0
Mean flea numbers (geometric), Treated group [5]: 0/0
Efficacy (from arithmetic mean flea counts) (day 35 post treatment): 100/100%
Efficacy (from geometric mean flea counts) (day 35 post treatment): 100/100%
Mean flea numbers (arithmetic), Treated group (day 35 post treatment): 0
Mean flea numbers (geometric), Treated group (day 35 post treatment): 0
Mean flea numbers (arithmetic), Treated group [6]: 0/0
Mean flea numbers (geometric), Treated group [6]: 0/0
Efficacy (from arithmetic mean flea counts) (day 42 post treatment): 100/100%
Efficacy (from geometric mean flea counts) (day 42 post treatment): 100/100%
Mean flea numbers (arithmetic), Treated group (day 42 post treatment): 0
Mean flea numbers (geometric), Treated group (day 42 post treatment): 0
Mean flea numbers (arithmetic), Treated group [7]: 0/0
Mean flea numbers (geometric), Treated group [7]: 0/0
Efficacy (from arithmetic mean flea counts) (day 49 post treatment): 99.8%
Efficacy (from geometric mean flea counts) (day 49 post treatment): 99.7%
Mean flea numbers (arithmetic), Treated group (day 49 post treatment): 0.1
Mean flea numbers (geometric), Treated group (day 49 post treatment): 0.1
Mean flea numbers (arithmetic), Treated group [8]: 0.1/0.1
Mean flea numbers (geometric), Treated group [8]: 0.1/0.1
Efficacy (from arithmetic mean flea counts) (day 56 post treatment): 99.8/99.8%
Efficacy (from geometric mean flea counts) (day 56 post treatment): 99.8/99.8%
Mean flea numbers (arithmetic), Treated group (day 56 post treatment): 0.1
Mean flea numbers (geometric), Treated group (day 56 post treatment): 0.1
Mean flea numbers (arithmetic), Treated group [9]: 0.1/0.1
Mean flea numbers (geometric), Treated group [9]: 0.1/0.1
Efficacy (from arithmetic mean flea counts) (day 63 post treatment): 100/100%
Efficacy (from geometric mean flea counts) (day 63 post treatment): 100/100%
Mean flea numbers (arithmetic), Treated group (day 63 post treatment): 0
Mean flea numbers (geometric), Treated group (day 63 post treatment): 0
Mean flea numbers (arithmetic), Treated group [10]: 0/0
Mean flea numbers (geometric), Treated group [10]: 0/0
Efficacy (from arithmetic mean flea counts) (day 70 post treatment): 99.7%
Efficacy (from geometric mean flea counts) (day 70 post treatment): 99.6%
Mean flea numbers (arithmetic), Treated group (day 70 post treatment): 0.1
Mean flea numbers (geometric), Treated group (day 70 post treatment): 0.1
Mean flea numbers (arithmetic), Treated group [11]: 0.1/0.1
Mean flea numbers (geometric), Treated group [11]: 0.1/0.1
Efficacy (from arithmetic mean flea counts) (day 77 post treatment): 100/100%
Efficacy (from geometric mean flea counts) (day 77 post treatment): 100/100%
Mean flea numbers (arithmetic), Treated group (day 77 post treatment): 0
Mean flea numbers (geometric), Treated group (day 77 post treatment): 0
Mean flea numbers (arithmetic), Treated group [12]: 0/0
Mean flea numbers (geometric), Treated group [12]: 0/0
Efficacy (from arithmetic mean flea counts) (day 84 post treatment): 100/100%
Efficacy (from geometric mean flea counts) (day 84 post treatment): 100/100%
Mean flea numbers (arithmetic), Treated group (day 84 post treatment): 0
Mean flea numbers (geometric), Treated group (day 84 post treatment): 0
Mean flea numbers (arithmetic), Treated group [13]: 0/0
Mean flea numbers (geometric), Treated group [13]: 0/0
